Reference: patent US20220161456A1, “S[…] PRESERVATIVE COMPOSITION COMPRISING POLYMERIC BETAINE AND CARBAMATE” (Troy Corporation, priority 2019, published 2022)

What was measured:
[1] = test system: Aspergillus niger (ATCC #6275); assay: EUCAST 96-well plate fungal growth inhibition (MIC); type: cell-based; parameters: key to growth of Aspergillus niger in 96-well plates: (+) in each block indicates growth; (−) indicates no growth, i.e., the inhibitor was effective; conditions: for MIC: Aspergillus niger ATCC 6275, 3 days at 35° C.
Description: (§1) (A) 0.17 g of 60% DPAB aqueous solution (ProTek® PBT or Polymeric Betaine EP or Polymeric Betaine Technical Grade Active Ingredient Wood Preservative, Troy Chemical Corporation, Newark, N.J.) was diluted in 9.83 g ethanol by stirring to form a concentrate containing 1% DPAB.
(§2) (B) 0.25 g of 40% IPBC solvent solution (Polyphase® AF-1, Troy Chemical Corporation, Newark, N.J.) was diluted in 9.75 g ethanol by stirring to form a concentrate containing 1% IPBC.
(§3) (C) 21.04 g of 60% DPAB aqueous solution (ProTek® PBT or Polymeric Betaine EP or Polymeric Betaine Technical Grade Active Ingredient Wood Preservative, Troy Chemical Corporation, Newark, N.J.), 6.25 g of 40% IPBC solvent solution (Polyphase AF-1, Troy Chemical Corporation, Newark, N.J.) and 22.74 g of ethanol were mixed and stirred. The resulting concentrate contained 25% polymeric betaine and 5% IPBC. The weight ratio of polymeric betaine to IPBC was 5:1. 0.33 g of this IPBC/polymeric betaine concentrate was diluted in 9.67 g of ethanol to form a use-dilution containing about 0.83% DPAB and 0.17% IPBC.
(§4) Solutions prepared as described above were tested in 96-well plates for their ability to inhibit fungal growth. The solutions were tested according to the EUCAST methodology as described in Rodriguez-Tudela et al. 2006 “Antifungal susceptibility testing in Aspergillus spp. according to EUCAST methodology,” the contents of which are incorporated by reference herein. The solutions were checked for inhibition against fungal organisms Aspergillus niger (ATCC #6275), Aureobasidium pullulans (ATCC #9348), Penicillium funiculosum (ATCC #11797) and Trichoderma pseudokoningii (ATCC #26801). This method is described below:
(§5) (1) Prepared preservative test wells by adding 2 microliters of each 1% preservative solution formulation to 198 microliters of 2xRPMI-MOPS-2% Glucose in each column “1” in duplicate.
(§6) (2) Added 100 microliters of 2xRPMI-MOPS-2% Glucose to the remaining columns.
(§7) (3) Performed 2-fold dilutions down the columns to column “12”.
(§8) (4) Prepared suspension of microorganisms from a 3-5 day old PDA slants by flooding slant with 1 mL deionized water and 0.1% Tween-20.
(§9) (5) Suspension strength was determined via hemocytometer then adjusted to 1×10^6 spores/mL with sterile deionized water.
(§10) (6) Added 100 microliters of the microorganism suspension to all wells except for sterility (−) controls containing test media. The water used to prepare the fungal suspensions was added to sterility (−) control wells.
(§11) (7) The inoculated 96-well plates were incubated for 3 days at 35° C.
(§12) (8) After incubation, fungal growth was evaluated by visual growth in test wells. Minimum inhibitory concentration (MIC) is recorded in ppm and defined as the lowest concentration of fungicide that produces no visual changes in turbidity in the test wells. (+) in each block indicates growth and (−) indicates no growth, i.e., the inhibitor was effective.
(§13) (9) The experiment is only considered valid if growth is observed in the positive (+) control wells and no growth is observed in the negative control wells.
(§14) In order to show more directly the possible synergy in the invention, the results are presented by applying the Synergy Index (S.I.). Minimal inhibitory concentration of the composition of this invention (mixture of DPAB and IPBC) are analyzed using the following equation:
(§15) MCA=Concentration of compound A in parts per million, acting alone, which prevents fungal growth at the reference point
(§16) MCA′=Concentration of compound A in parts per million, in the mixture, which prevents fungal growth at the reference point
(§17) MCB=Concentration of compound B in parts per million, acting alone, which prevents fungal growth at the reference point
(§18) MCB′=Concentration of compound B in parts per million, in the mixture, which prevents fungal growth at the reference point
(§19) When SI is greater than 2, antagonism is indicated. […] When SI is between 0.5 and 2, the action of biocides is additive.

[2] = test system: Trichoderma pseudokoningii (ATCC #26801); assay: as above; type: cell-based; parameters: key to growth of Trichoderma pseudokoningii in 96-well plates: (+) in each block indicates growth; (−) indicates no growth, i.e., the inhibitor was effective; conditions: for MIC: Trichoderma pseudokoningii ATCC 26801, 3 days at 35° C.
Description: as §1, §2, §3, §4, §5, §6, §7, §8, §9, §10, §11, §12, §13, §14, §15, §16, §17, §18, §19

In the case of “didecyl bis(hydroxyethyl) ammonium borate [DPAB]”, the MIC [1] is reported as 12.50 ppm, the “growth of Aspergillus niger in 96-well plates” value (from here on “growth of Aspergillus niger”) ([1]; well 1, 50.0 ppm active) is reported as “−” and the “growth of Aspergillus niger” value ([1]; well 2, 25.0 ppm active) is reported as “−”. The “growth of Aspergillus niger” value ([1]; well 3, 12.5 ppm active) was “−”, the “growth of Aspergillus niger” value ([1]; well 4, 6.25 ppm active) was “+” and the “growth of Aspergillus niger” value ([1]; well 5, 3.13 ppm active) was “+”. The “growth of Aspergillus niger” value ([1]; well 6, 1.56 ppm active) was “+”, the “growth of Aspergillus niger” value ([1]; well 7, 0.78 ppm active) was “+” and the “growth of Aspergillus niger” value ([1]; well 8, 0.39 ppm active) was “+”. For the same compound, the “growth of Aspergillus niger” value ([1]; well 9, 0.20 ppm active) was “+”, the “growth of Aspergillus niger” value ([1]; well 10, 0.10 ppm active) was “+” and the “growth of Aspergillus niger” value ([1]; well 11, 0.05 ppm active) was “+”. For the same compound, the “growth of Aspergillus niger” value ([1]; well 12, 0.02 ppm active) was “+”, the MIC [2] was 25.00 ppm and the “growth of Trichoderma pseudokoningii in 96-well plates” value (“growth of Trichoderma pseudokoningii” for short) ([2]; well 1, 50.00 ppm active) was “−”. For the same compound, the “growth of Trichoderma pseudokoningii” value ([2]; well 2, 25.00 ppm active) was “−”, the “growth of Trichoderma pseudokoningii” value ([2]; well 3, 12.50 ppm active) was “+” and the “growth of Trichoderma pseudokoningii” value ([2]; well 4, 6.25 ppm active) was “+”. The “growth of Trichoderma pseudokoningii” value ([2]; well 5, 3.13 ppm active) was “+”, the “growth of Trichoderma pseudokoningii” value ([2]; well 6, 1.56 ppm active) was “+” and the “growth of Trichoderma pseudokoningii” value ([2]; well 7, 0.78 ppm active) was “+”. For the same compound, the “growth of Trichoderma pseudokoningii” value ([2]; well 8, 0.39 ppm active) was “+”, the “growth of Trichoderma pseudokoningii” value ([2]; well 9, 0.20 ppm active) was “+” and the “growth of Trichoderma pseudokoningii” value ([2]; well 10, 0.10 ppm active) was “+”. For the same compound, the “growth of Trichoderma pseudokoningii” value ([2]; well 11, 0.05 ppm active) was “+” and the “growth of Trichoderma pseudokoningii” value ([2]; well 12, 0.02 ppm active) was “+”.

With `CCCCNC(=O)OCC#CI` [IPBC, 3-iodo-2-propynyl butyl carbamate] the MIC [1] was 0.78 ppm, the “growth of Aspergillus niger” value ([1]; well 1, 50.0 ppm active) was “−” and the “growth of Aspergillus niger” value ([1]; well 2, 25.0 ppm active) was “−”. The “growth of Aspergillus niger” value ([1]; well 3, 12.5 ppm active) was “−”, the “growth of Aspergillus niger” value ([1]; well 4, 6.25 ppm active) was “−” and the “growth of Aspergillus niger” value ([1]; well 5, 3.13 ppm active) was “−”. For the same compound, the “growth of Aspergillus niger” value ([1]; well 6, 1.56 ppm active) was “−”, the “growth of Aspergillus niger” value ([1]; well 7, 0.78 ppm active) was “−” and the “growth of Aspergillus niger” value ([1]; well 8, 0.39 ppm active) was “+”. The “growth of Aspergillus niger” value ([1]; well 9, 0.20 ppm active) was “+”, the “growth of Aspergillus niger” value ([1]; well 10, 0.10 ppm active) was “+” and the “growth of Aspergillus niger” value ([1]; well 11, 0.05 ppm active) was “+”. The “growth of Aspergillus niger” value ([1]; well 12, 0.02 ppm active) was “+”, the MIC [2] was 6.25 ppm and the “growth of Trichoderma pseudokoningii” value ([2]; well 1, 50.00 ppm active) was “−”. For the same compound, the “growth of Trichoderma pseudokoningii” value ([2]; well 2, 25.00 ppm active) was “−”, the “growth of Trichoderma pseudokoningii” value ([2]; well 3, 12.50 ppm active) was “−” and the “growth of Trichoderma pseudokoningii” value ([2]; well 4, 6.25 ppm active) was “−”. For the same compound, the “growth of Trichoderma pseudokoningii” value ([2]; well 5, 3.13 ppm active) was “+”, the “growth of Trichoderma pseudokoningii” value ([2]; well 6, 1.56 ppm active) was “+” and the “growth of Trichoderma pseudokoningii” value ([2]; well 7, 0.78 ppm active) was “+”. The “growth of Trichoderma pseudokoningii” value ([2]; well 8, 0.39 ppm active) was “+”, the “growth of Trichoderma pseudokoningii” value ([2]; well 9, 0.20 ppm active) was “+” and the “growth of Trichoderma pseudokoningii” value ([2]; well 10, 0.10 ppm active) was “+”. The “growth of Trichoderma pseudokoningii” value ([2]; well 11, 0.05 ppm active) was “+” and the “growth of Trichoderma pseudokoningii” value ([2]; well 12, 0.02 ppm active) was “+”.
